According to US9193717B2, “Mineralocorticoid receptor antagonists” (Merck Sharp & Dohme Corp., priority 2011, dated 2015):
Like-named read-outs stand apart in the source and are kept apart here.

Target: T1, full-length human Mineralocorticoid Receptor (MR) (Homo sapiens, UniProt P08235)
T1 construct: full-length human Mineralocorticoid Receptor (MR); host or cells: PathHunter CHO-K1 cells
T1 sequence (P08235 1-984): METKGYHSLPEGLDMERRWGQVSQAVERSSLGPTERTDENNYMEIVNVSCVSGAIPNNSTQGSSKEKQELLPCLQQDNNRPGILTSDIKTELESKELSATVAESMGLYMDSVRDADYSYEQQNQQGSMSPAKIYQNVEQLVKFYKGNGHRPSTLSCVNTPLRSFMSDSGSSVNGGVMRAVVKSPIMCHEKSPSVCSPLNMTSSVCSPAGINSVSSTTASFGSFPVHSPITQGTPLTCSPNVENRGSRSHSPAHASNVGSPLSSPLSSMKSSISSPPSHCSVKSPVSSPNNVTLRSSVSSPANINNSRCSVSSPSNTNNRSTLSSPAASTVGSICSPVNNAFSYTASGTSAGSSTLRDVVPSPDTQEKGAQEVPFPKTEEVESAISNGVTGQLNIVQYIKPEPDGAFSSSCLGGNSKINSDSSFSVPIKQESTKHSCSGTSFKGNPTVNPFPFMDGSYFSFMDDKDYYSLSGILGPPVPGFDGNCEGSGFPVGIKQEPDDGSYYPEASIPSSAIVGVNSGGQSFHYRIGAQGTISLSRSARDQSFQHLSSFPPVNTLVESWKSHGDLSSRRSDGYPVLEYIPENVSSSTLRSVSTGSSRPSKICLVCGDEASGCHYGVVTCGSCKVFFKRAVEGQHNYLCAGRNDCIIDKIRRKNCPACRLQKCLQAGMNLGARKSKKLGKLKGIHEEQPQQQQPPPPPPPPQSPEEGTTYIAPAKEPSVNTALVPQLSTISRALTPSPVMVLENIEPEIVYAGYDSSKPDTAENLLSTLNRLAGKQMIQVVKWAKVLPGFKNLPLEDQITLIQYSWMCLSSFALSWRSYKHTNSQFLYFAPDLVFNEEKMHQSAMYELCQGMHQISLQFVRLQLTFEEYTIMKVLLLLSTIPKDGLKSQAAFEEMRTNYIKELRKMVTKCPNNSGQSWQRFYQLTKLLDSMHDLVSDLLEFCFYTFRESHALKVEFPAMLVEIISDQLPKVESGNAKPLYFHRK
Assay: human MR NH Pro assay (PathHunter Protein:Protein interaction assay, MR antagonism)
Assay type: cell-based
Details: PathHunter CHO-K1 cells that overexpress human MR, aldosterone (0.3 nM), 6 hours at 37° C., antagonist mode
Protocol: The activity of the compounds of the present invention regarding mineralocorticoid receptor antagonism was evaluated using the following assay.
Assessment of Mr Potency in HMR NH Pro Assay
The human MR NH Pro assay is a commercially available PathHunter™ Protein:Protein interaction assay (DiscoveRx; http://www.discoverx.com/nhrs/prod-nhrs.php) that measures the ability of compounds to antagonize full-length human Mineralocorticoid Receptor (MR) binding to a coactivator peptide. PathHunter™ CHO—K1 cells that overexpress human MR (Cat #93-0456C2, Lot No: 09B0913) were cultured in growth media (F12K w/Glutamine and phenol red (Gibco 11765-047) supplemented with 10% HI FBS (Gibco 16000); 0.25 mg/ml Hygromycin in PBS (Invitrogen 10687-010, 50 mg/ml); 100 I.U./mL and 100 μg/mL Pen/Strep (Gibco 15140-122); 0.6 mg/mL Geneticin).
Compounds were assessed for MR antagonist activity by incubating the cells with a titrating dose of compound in F12K w/Glutamine and phenol red culture media (Invitrogen 11765-047) supplemented with 1% Charcoal/Dextran Treated FBS (Hyclone #SH30068.01) and aldosterone (0.3 nM) for 6 hours at 37° C. […] Growth Media: • F12K w/Glutamine and phenol red (Gibco 11765-047) • 10% HI FBS (Gibco 16000) • 0.25 mg/ml Hygromycin in PBS (Invitrogen 10687-010, 50 mg/ml) • 100 I.U./mL and 100 μg/mL Pen/Strep (Gibco 15140-122) • 0.6 mg/mL Geneticin (Gibco 10131, 50 mg/ml) • 2. Assay Media: • F12K w/Glutamine and phenol red (Invitrogen 11765-047) • 1% Charcoal/Dextran Treated FBS (Hyclone #SH30068.01) • 3. 3× PathHunter Detection Reagents (Cat#93-0001) (need ˜6 ml/plate). […] Control Agonist:Aldosterone:Sigma cat# A9477 • Prepare stock solution-10 μM in DMSO kept at −20° C. • for assay, dilute in assay media to 1.8 or 6 nM (6× of final concentration=about 0.3 nM to about 1.0 nM) • 5. Cell line: PathHunter CHO—K1 MR cells Cat #93-0456C2, Lot No: 09B0913, from operation liquid nitrogen stock. • 6. Control Antagonist:Spironolactone:Sigma #S-3378 and Eplerenone Sigma #107724-20-9 (10 mM stock concentration also prepared in DMSO and stored at −20° C.). • Methods: • Assay Set up and Calculations: • 1. Cells were grown in F12+FBS+Hygromycin+pen/strep+Genetin • 2. Cells were collected with 0.05% trypsin and the cell suspension was spun and resuspended in a volume of F12+1.5% CD-FBS and counted. • 3. The cells were resuspended to 4×10^5 cells/mL. • 4. Cells were (25 μL/well) added to the wells of a 384 well plate. • 5. The plate was then incubated at 37° C. over night in a humidified incubator with 5% CO2. • 6. Test compounds were titrated starting at 4.4 mM, 10-point titration in 1:3 dilution. • 7. Aldosterone was diluted in assay media to 1.8 nM or 6 nM from 10 μM stock (final concentration to be about 0.3 nM to about 1.0 nM). • Protocol for 384 Well Plate Format: 6 Hr Treatment: • 1. Plated 10K exponentially growing cells/well (25 μL) resuspended in assay media to each well using the Multidrop (Thermo Electron) (use white wall, clear bottom assay plates (Costar #3570) and incubate overnight at 37° C., 5% CO2. • 2. 0.25 μL 120× test compound (final DMSO concentration should be <1%) was added to each well n=2, 10 point titrations starting at 36.7 μM final concentration. • 3. 5 μL 6× agonist (final aldosterone concentration should be about 0.3 nM to about 1.0 nM) was added to all wells using the PlateMate Plus.
(ThermoFisher) (except those wells in columns 23 and 24) • 4. 5 μL of assay media was added to all wells in column 23 and 24. • 5. Plates were incubated 6 hrs at 37° C., 5% CO2. • 6. 15 μL 3× DiscoveRx detection reagent was added to each well. • 7. Plates were incubated for 1 hour at room temperature (plates stored in the dark). • 8. Plates were read on Envision (PerkinElmer) luminesence plate reader and analyzed using ADA.

| IC50 (read-out: IC50 rating) | IC50 (Table 3, read-out: IC50) | SMILES |
| --- | --- | --- |
| 0.1 to 0.5 µM |  | C[C@H](c1ccc(F)cc1)N1C(=O)O[C@](Cc2ccccc2)(c2nc3cc(F)c(F)cc3n2C)C1=O [Compound 37, (5R)-5-Benzyl-5-(5,6-difluoro-1-methyl-1H-benzimidazol-2-yl)-3-[(1R)-1-(4-fluorophenyl)ethyl]-1,3-oxazolidine-2,4-dione] |
|  | 0.5 to 2 µM | CCCCC[C@@H](C)N1C(=O)O[C@](Cc2ccccc2)(c2nc3cc(NS(C)(=O)=O)ccc3[nH]2)C1=O [Example 40, N-(2-((R)-5-benzyl-3-((R)-heptan-2-yl)-2,4-dioxooxazolidin-5-yl)-1H-benzo[d]imidazol-5-yl)methanesulfonamide] |
|  | 0.5 to 2 µM | CCCCCC[C@@H](C)N1C(=O)O[C@](Cc2ccc(F)cc2)(c2nc3cc(NS(C)(=O)=O)ccc3[nH]2)C1=O [Example 41, N-(2-((R)-5-(4-fluorobenzyl)-3-((R)-octan-2-yl)-2,4-dioxooxazolidin-5-yl)-1H-benzo[d]imidazol-5-yl)methanesulfonamide] |
|  | 0.5 to 2 µM | CCCCCC[C@@H](C)N1C(=O)O[C@](Cc2ccccc2)(c2nc3cc(NS(C)(=O)=O)ccc3[nH]2)C1=O [Example 42, N-(2-((R)-5-benzyl-3-((R)-octan-2-yl)-2,4-dioxooxazolidin-5-yl)-1H-benzo[d]imidazol-5-yl)methanesulfonamide] |
